The test system of test [1] is C. orbiculare eIF4A^His153Gly conidia and mycelia. Briefly: Ribosome profiling and RNA-Seq, translation efficiency change. Particulars: 3 µM aglafoline, 6 h, compared with eIF4A^WT. In kind it is cell-based, Colletotrichum orbiculare. Here is the method:
(§1) Glycerol stocks of C. orbiculare eIF4A^WT#1 and eIF4A^H153G#1 strains were streaked on PDA in 90 mm plastic Petri dishes and incubated for 3 days. A single colony of each strain was transferred onto PDA and incubated for 3 days. The outer edges of colonies were transferred to 90 mm plastic dishes filled with 20 ml of PDB using plastic straws and incubated for 4 days. Aglafoline (0.3 or 3 µM) or DMSO was added to dishes and incubated for 6 h.
(§2) A single colony from the glycerol stocks was cultured by the same method used for mycelium preparation. The outer edges of colonies of each strain were transferred into six 300 ml flasks filled with 100 ml of PDA. Two milliliters of sterilized water was added to each flask, and the flasks were shaken well to ensure that the mycelial cells adhered to the entire surface of the PDA evenly. After 6 days of incubation in the dark, conidia generated on the surface of PDA were suspended in 20 ml of sterilized water. […]
(§3) Sequence data were processed as previously described ([McGlincy and Ingolia, 2017]) with modifications. For ribosome profiling, using the Fastp v0.21.0 ([Chen et al., 2018]) tool, sequences of reads 1 were corrected by reads 2, and quality filtering and adapter sequence removal were performed on reads 1. The adapter-removed reads 1 were split by the barcode sequence. […]

For test [2], the system named is C. orbiculare eIF4A^WT conidia and mycelia. The test is described as above. Particulars: 0.3 or 3 µM aglafoline, 6 h. In kind it is cell-based, Colletotrichum orbiculare. Here is the method: as §1, §2, §3
The target in test [3] is T1, H. sapiens eIF4A1 Phe163Gly (Homo sapiens, UniProt P60842, F163G).
T1 construct: His tag (N); made in house; host or cells: E. coli BL21 Star (DE3)
T1 sequence (P60842 whole entry F163G): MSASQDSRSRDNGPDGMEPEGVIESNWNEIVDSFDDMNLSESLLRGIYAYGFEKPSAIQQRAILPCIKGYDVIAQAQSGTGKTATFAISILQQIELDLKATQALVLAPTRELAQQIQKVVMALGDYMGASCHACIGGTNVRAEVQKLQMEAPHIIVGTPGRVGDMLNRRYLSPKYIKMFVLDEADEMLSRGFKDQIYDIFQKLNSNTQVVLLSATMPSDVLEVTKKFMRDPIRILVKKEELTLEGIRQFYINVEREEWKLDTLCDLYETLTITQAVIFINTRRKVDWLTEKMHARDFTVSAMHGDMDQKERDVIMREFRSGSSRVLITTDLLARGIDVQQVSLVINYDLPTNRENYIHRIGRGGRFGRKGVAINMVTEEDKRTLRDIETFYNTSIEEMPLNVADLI
Briefly: In vitro translation assay in reconstituted system with human factors. In kind it is biochemical. As to conditions: for translation of reporter mRNA, Mean / translation of reporter mRNA, replicates: CAA repeats reporter, value at 0 μM RocA = 1. An excerpt: (§4) The DNA fragments PCR-amplified from psiCHECK2−7×AGAGAG motifs or psiCHECK2-CAA repeats ([Iwasaki et al., 2016]) were used as a template for in vitro transcription with a T7-Scribe Standard RNA IVT Kit ([…]). RNA was capped and poly(A) tailed with a ScriptCap m^7G Capping System, a ScriptCap 2′-O-Methyltransferase Kit, and an A-Plus Poly(A) Polymerase Tailing Kit ([…]).
(§5) The reconstitution system for human translation has been described previously ([Iwasaki et al., 2019]; [Machida et al., 2018]; [Yokoyama et al., 2019]). The in vitro translation reaction and luciferase assay were performed as previously described ([Iwasaki et al., 2019]) with some modifications. The final concentrations of mRNA and the eIF4A protein were 60 ng/µl and 2.16 µM, respectively. The translation mixture was incubated for 2.5 hr. The fluorescence signal was detected using the Renilla-Glo Luciferase Assay System (Promega) and measured in an EnVision 2104 plate reader (PerkinElmer).

The target of a further test is T2, H. sapiens eIF4A1 WT (Homo sapiens, UniProt P60842).
T2 construct: His tag (N); made in house; host or cells: E. coli BL21 Star (DE3)
T2 sequence (P60842 whole entry): as the sequence (P60842 whole entry F163G) above, with G163F counted along it
The description is as above. In kind it is biochemical. Particulars: for translation of reporter mRNA, Mean / translation of reporter mRNA, replicates: CAA repeats reporter, value at 0 μM RocA = 1.
Text: as §4, §5

Values joined by “and” are separate entries in the source; they are usually repeats but may differ in a detail not shown here. Equal entries are not always repeated. “Also recorded” adds a separate entry of the source.

Regarding `COC(=O)[C@H]1[C@@H](O)[C@@]2(O)c3c(OC)cc(OC)cc3O[C@@]2(c2ccc(OC)cc2)[C@@H]1c1ccccc1` [Aglafoline, methyl rocaglate], the translation efficiency change result in test [1] is given as “attenuated by the His153Gly substitution”; in test [2] it was “a subset of mRNAs showed high aglafoline sensitivity in terms of translation efficiency in conidia; also recorded: the reduction was compound dose dependent”.

Regarding `COc1ccc([C@@]23Oc4cc(OC)cc(OC)c4[C@]2(O)[C@H](O)[C@H](C(=O)N(C)C)[C@H]3c2ccccc2)cc1` [RocA, rocaglamide A], the “translation of reporter mRNA, Mean” value in test [3] (RocA 0.1 μM) is 1.06; in test [3] (RocA 1 μM), 1.42; in test [3] (RocA 10 μM), 0.918; at H. sapiens eIF4A1 WT (RocA 0.1 μM), 1.2394; on H. sapiens eIF4A1 WT (RocA 1 μM), 1.148; on H. sapiens eIF4A1 WT (RocA 10 μM), 1.012. Moreover, the “translation of reporter mRNA, replicates” value is 0.8871 and 1.301 and 0.9923 in test [3] (RocA 0.1 μM); 0.8083 and 2.551 and 0.9008 in test [3] (RocA 1 μM); 0.6256 and 1.131 and 0.9971 in test [3] (RocA 10 μM); 0.9075 and 1.715 and 1.095 on H. sapiens eIF4A1 WT (RocA 0.1 μM); 0.7715 and 1.702 and 0.9709 at H. sapiens eIF4A1 WT (RocA 1 μM); 0.7743 and 1.31 and 0.9501 on H. sapiens eIF4A1 WT (RocA 10 μM). Further, the “translation of reporter mRNA” value is given as “prevented the translation repression mediated by RocA” in test [3] (polypurine motif reporter mRNA, Figure 3A) and “translation reduction from polypurine motif-possessing reporter mRNA” at H. sapiens eIF4A1 WT (polypurine motif-possessing reporter mRNA, Figure 3A).

For the origin of these results see PMC9977294, “A parasitic fungus employs mutated eIF4A to survive on rocaglate-synthesizing Aglaia plants” (eLife, 2023).
